# Data taken from paper PMC6384730, “Systematic Identification of Thiosemicarbazides for Inhibition of Toxoplasma gondii Growth In Vitro” (Molecules, 2019).
# “And” between values parts separate entries of the source, which are not always exact repeats. Equal entries are not always repeated. Where two headings read alike, the source gives them in different places.
# Experiments:
# Toxoplasma gondii = test system: Toxoplasma gondii; parameters: method as in PMID 25010466; conditions: previously reported; cited from earlier work
# T. gondii RH tachyzoites = assay: Influence on T. gondii proliferation ([3H]uracil incorporation) in infected Vero cells; assay type: cell-based, Toxoplasma gondii; conditions: Toxoplasma gondii, Vero
# Description: Vero cell line (African green monkey kidney) (ATCC® CCL-81™) were maintained in EMEM (EMEM/10%HIFBS/P/S) (Eagle’s Minimum Essential Medium—ATCC® 30-2003™) culture medium supplemented with 10% HIFBS (Heat-Inactivated (1 h in 56°C) Fetal Bovine Serum—ATCC), 100 U/mL penicillin, 100 μg/mL streptomycin. The cell line was trypsinized (using Trypsin-EDTA Solution, 1X ATCC® 30-2101™) twice a week, and seeded at density 1 × 10^6 per T25 cell culture flask (Falcon), and incubated for 24–48 h at 37 °C and 5 CO2 to achieve a confluent monolayer. The highly virulent RH strain of Toxoplasma gondii, haplogroup I (ATCC® PRA-310™) were maintained as tachyzoites according to the ATCC product sheet, in DMEM (Dulbecco’s Modified Eagle’s Medium—ATCC® 30-2002™) (DMEM/3%HIFBS/P/S—parasite culture medium) under condition 37 °C and 5 CO2 and passage twice per week.
# The Vero cells were seeded on 96-well plates (1 × 10^5 cells/100 µL/well) in EMEM/10%HIFBS/P/S. After 24 h of incubation medium was removed and then T. gondii RH tachyzoites were added to the cell monolayers at density 1 × 10^5 cells/100 µL/well in DMEM/3%HIFBS/P/S. One hour later different compounds and sulfadiazine dilutions (100 µL/well) in parasite culture medium were added to the cell monolayers with T. gondii. After subsequent 24 h of incubation 1 µCi/well [5,6-^3H] uracil (Moravek Biochemicals Inc., Brea, CA, USA) was applied to each microculture for further 72 h. The amount of the isotope incorporated into the parasite nucleic acid pool, corresponding to the parasite growth, was measured by liquid scintillation counting using 1450 Microbeta Plus Liquid Scintillation Counter (Wallac Oy, Turku, Finland). The results were expressed as counts per minute (CPM) and transformed to the percentage of viability compared to untreated cells. All experiments were performed in triplicate.
# L929 cells = assay: MTT cell viability (cytotoxicity) assay on L929 cells; assay type: cell-based, mouse; conditions: L929 cells, 24 h exposure
# Description: (§1) Cells were trypsinized twice a week, and seeded at density 1 × 10^6 per T25 cell culture flask, and incubated for 24-48 h at 37 °C and 10% CO2 to achieve a confluent monolayer. […] The final concentration of DMSO in compounds dilutions was not higher than 1.00%. […] Dilution of the all compounds 2-22 and drug were freshly prepared before the cells were exposed. […] The MTT assay was used according to international standards: ISO 10993-5:2009(E), Biological evaluation of medical devices, Part 5: Tests for in vitro cytotoxicity. […] Afterward, the culture medium in the plates was replaced by 100 μL of compounds and sulfadiazine suspension and the cells were exposed for 24 h. Then, 1 mg/mL of MTT solution in RPMI 1640 without phenol red was prepared and 50 μL of the solution was added to each well and incubated at 37 °C, 10% CO2 for 2 h. Mitochondrial dehydrogenases of viable cells reduced the yellowish water-soluble MTT to water-insoluble formazan crystals, which were solubilized with dimethyl sulfoxide (DMSO). The cell culture medium was aspirated cautiously, after which 150 μL DMSO was added to each well, the plates were gently mixed, then 25 μL 0.1 M glycine buffer (pH = 10.5) (Sigma) was added. Optical density was read on the ELISA reader (Multiskan EX, Labsystems, Vienna, VA, USA) at 570 nm. The results were expressed as the percentage of viability compared to untreated cells. All experiments were performed in triplicate. Moreover, cells were treated with 4.0-0.03% concentration of DMSO as a compounds solvent (data not shown).
# [1] = MTT cell viability (cytotoxicity) assay on L929 cells; assay type: cell-based, mouse; conditions: mouse, L929 mouse fibroblast cells, 24 h, % of untreated cells; for viability at 24 h, 62.5 µg/mL: 62.50 µg/mL
# Description: as §1
# [2] = IC50 greater than 125 µg/mL (highest concentration tested), calculated by extrapolation of the curves (GraphPad Prism), read-out: IC50 (50% inhibition of T. gondii proliferation in vitro), extrapolated
# [3] = RH tachyzoites in Vero cells, [3H]uracil incorporation, highest concentration tested 125 µg/mL, read-out: IC50 (50% inhibition of T. gondii proliferation in vitro)
SMILES,IC50 against proliferation of Toxoplasma gondii (Toxoplasma gondii),IC50 (T. gondii RH tachyzoites; [2]),CC30 (concentration required for 30% cells proliferation inhibition) (L929 cells),melting point,IC50 (T. gondii RH tachyzoites; [3]),"viability at 24 h, 3.91 µg/mL [1]","viability at 24 h, 7.81 µg/mL [1]","viability at 24 h, 15.63 µg/mL [1]","viability at 24 h, 31.25 µg/mL [1]","viability at 24 h, 62.5 µg/mL [1]","viability at 24 h, 125 µg/mL [1]","viability at 24 h, 250 µg/mL [1]","viability at 24 h, 500 µg/mL [1]",fold more potent than sulfadiazine (Toxoplasma gondii)
"Nc1ccc(S(=O)(=O)Nc2ncccn2)cc1 [Sulfadiazine, 4-amino-N-(2-pyrimidinyl)benzenesulfonamide, reference compound]",> 500 µg/mL,~2720 µg/mL,1251.12 µg/mL,–,–,–,–,–,–,–,–,–,–,–
"CCN(CC)c1ccc(NC(=S)NNC(=O)c2[nH]cnc2C)cc1 [Compound 20, 1-(4-Methylimidazol-5-oyl)-4-(4-diethyloaminophenyl)thiosemicarbazide]",–,–,63.10 µg/mL,225 to 227 °C,25.7 µg/mL,102%,93.6%,85.7%,71.3%,67.9%,66%,53.4%,12.9%,–
"Cc1nc[nH]c1C(=O)NNC(=S)Nc1cccc(F)c1 [Compound 11, 4-(3-Fluorophenyl)-1-(4-methylimidazol-5-oyl)thiosemicarbazide]",–,–,95.50 µg/mL,191 to 192 °C,~118 µg/mL,104%,101%,99.8%,92.7%,75.6%,66%,57.8%,46.3%,–
"COc1cccc(NC(=S)NNC(=O)c2[nH]cnc2C)c1 [Compound 6, 4-(3-Methoxyphenyl)-1-(4-methylimidazol-5-oyl)thiosemicarbazide]",–,–,165.96 µg/mL,196 to 198 °C,79.7 µg/mL,92.8%,88.6%,86.2%,83.3%,79.7%,68.8%,67.3%,56.8%,–
"COc1ccc(NC(=S)NNC(=O)c2[nH]cnc2C)cc1OC [Compound 13, 4-(3,4-Dimethoxyphenyl)-1-(4-methylimidazol-5-oyl)thiosemicarbazide]",–,~175 µg/mL,>500.00 µg/mL and >500 µg/mL,223 to 225 °C,–,107%,105%,103%,99.8%,97.5%,95.7%,94.2%,77%,–
O=C(NNC(=S)Nc1ccc(F)cc1)c1cccs1 [Compound 1],33.17 µg/mL,–,–,–,–,–,–,–,–,–,–,–,–,at least 15 fold
"Cc1nc[nH]c1C(=O)NNC(=S)Nc1ccc(N(C)C)cc1 [Compound 19, 1-(4-Methylimidazol-5-oyl)-4-(4-dimethyloaminophenyl)thiosemicarbazide]",–,~165 µg/mL,112.20 µg/mL,215 to 217 °C,–,93.1%,91.8%,85.7%,80.8%,78.6%,68.5%,60.8%,53.3%,–
"Cc1ccccc1NC(=S)NNC(=O)c1[nH]cnc1C [Compound 16, 1-(4-Methylimidazol-5-oyl)-4-(2-methylphenyl)thiosemicarbazide]",–,~150 µg/mL,288.40 µg/mL,210 to 212 °C,–,103%,102%,100%,93.8%,91.2%,79.7%,71.5%,63.4%,–
"Cc1ccc(NC(=S)NNC(=O)c2[nH]cnc2C)cc1Cl [Compound 14, 4-(3-Chloro-4-methylphenyl)-1-(4-methylimidazol-5-oyl)thiosemicarbazide]",–,–,28.18 µg/mL,213 to 215 °C,18.6 µg/mL,101%,91.5%,76.6%,67.5%,61.5%,49.3%,21.1%,10.4%,–
